Experimental data from patent publication US6375926B1, “Labelled elastase inhibitors” (Amersham International PLC, priority 1996, dated 2002).

Tests used:
[1] = target: T1, HLE (human leucocyte elastase) (Homo sapiens, UniProt P08246); assay: Measurement of HLE inhibition potency (kinact/Ki); assay type: biochemical; conditions: measured for non-radioactive iodine-labelled compounds and unlabelled chelate conjugates
T1 sequence (P08246 30-267): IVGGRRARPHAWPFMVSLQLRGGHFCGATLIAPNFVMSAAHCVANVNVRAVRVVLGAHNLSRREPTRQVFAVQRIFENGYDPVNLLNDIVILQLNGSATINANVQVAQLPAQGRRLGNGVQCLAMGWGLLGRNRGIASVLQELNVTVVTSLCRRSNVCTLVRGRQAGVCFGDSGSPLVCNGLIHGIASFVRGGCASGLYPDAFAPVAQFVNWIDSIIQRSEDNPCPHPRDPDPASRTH
Method: Inhibitor potency against HLE is described by the parameter kinact/Ki as previously reported [Knight et al., Biochem., 8160-8170, (1992)]. Lyophilised enzyme was reconstituted with TrisHCl buffer, 100 mM, 0.5M NaCl at 0.05 units/ml (approximately nanomolar concentration) in a final reaction volume of 1 ml to which was added methoxysucc-ala-ala-pro-val-pNA substrate (1 mM) and the elastase inhibitor dissolved in DMSO. The reaction was monitored by detecting the change of absorbance at 410 nm (hydrolysis of the substrate releasing p-nitroaniline) over a timescale of 25 minutes. Values of kinact/Ki were estimated according to the Knight et al method.

[2] = test system: isolated human white cells (granulocytes; monocytes + lymphocytes); assay: In vitro cell uptake in isolated human white cells; assay type: cell-based; conditions: for selectivity for granulocytes over a mixture of monocytes/lymphocytes: approximately equivalent numbers of monocytes/lymphocytes and granulocytes present; for % uptake in Gran. (granulocytes), WHITE CELLS / % uptake in Mon. (monocytes + lymphocytes), WHITE CELLS: isolated human white cells, 30 minutes at 37° C., radiolabelled compound
Method: Fresh blood (30-120 ml) was anticoagulated with 1.5% ACD solution and sedimented by addition of 2 ml Hespan per 10 ml blood for 90 minutes at room temperature. The leucocyte rich platelet rich plasma supernatant was removed and centrifuged at 150 g for 5 minutes, yielding a leucocyte rich pellet and platelet rich plasma (PRP). The PRP was centrifuged at 4000 g to pellet the platelets leaving a cell free plasma (CFP). The leucocyte pellet was resuspended in a 50:50 mixture of HBSS and CFP and incubated with the radioactive compound for 30 minutes at 37° C. Free radioactive material was then removed from the cells by addition of an excess of HBSS:CFP and centrifugation of the leucocytes at 150 g for 7 minutes. The supernatant and cell pellet were taken for radioactive counting for calculation of percentage cell uptake. The distribution of radioactivity within the cell pellet was assessed by separation of the cell types using Percoll density gradient centrifugation (38%, 55% and 73% Percoll in HBSS step gradients). The residual plasma and free activity was recovered from the top of the gradient, the mononuclear cells (lymphocytes and monocytes) from the interface between 38% and 55%, and the granulocytes were recovered from the interface between 55% and 73% Percoll.

[3] = test system: human whole blood (granulocytes, monocytes + lymphocytes, erythrocytes); assay: In vitro cell uptake in human whole blood; assay type: cell-based; conditions: 37° C. for 1 hour, radiolabelled compound
Method: The radioactive compound was added to 1 ml whole blood anticoagulated with ACD and incubated at 37° C. for 1 hour. The blood was diluted with HBSS and the cellular component separated by centrifugation. Distribution of activity within the cellular pellet was assessed by separation of cell fractions on Ficoll-Hypaque gradients as above.

[4] = test system: mixed human red/white cells (granulocytes, monocytes + lymphocytes, erythrocytes); assay: In vitro cell uptake in mixed human red/white cells; assay type: cell-based; conditions: radiolabelled compound
Method: The radioactive compound was also incubated with an isolated leucocyte preparation to which an erythrocyte fraction had been added back. The packed erythrocytes obtained after blood sedimentation were washed twice with HBSS and then resuspended in their original blood volume with HBSS. Leucocytes obtained from 30 ml blood were resuspended in 0.5 ml erythrocyte suspension and 0.5 ml CFP. The cell suspension was then incubated with compound as above. Analysis of the distribution of activity in the cell pellet in the presence of red blood cells was carried out using Ficoll-Hypaque discontinuous density gradients (densities 1.04, 1.077 and 1.119 g/ml Histopaque steps).

| Structure (SMILES) | Potency (1/(M·s)), kinact/Ki [1] [M⁻¹ s⁻¹] | selectivity for granulocytes over a mixture of monocytes/lymphocytes [2] | % uptake in Gran. (granulocytes), WHITE CELLS [2] [%] | % uptake in Mon. (monocytes + lymphocytes), WHITE CELLS [2] [%] | % uptake in Eryth. (erythrocytes), WHOLE BLOOD [3] [%] | % uptake in Gran. (granulocytes), WHOLE BLOOD [3] [%] | % uptake in Mon. (monocytes + lymphocytes), WHOLE BLOOD [3] [%] | % uptake in Eryth. (erythrocytes), WHITE AND RED CELLS [4] [%] | % uptake in Gran. (granulocytes), WHITE AND RED CELLS [4] [%] | % uptake in Mon. (monocytes + lymphocytes), WHITE AND RED CELLS [4] [%] |
| --- | --- | --- | --- | --- | --- | --- | --- | --- | --- | --- |
| CCC1(CC)C(=O)N(C(=O)NCc2ccccc2)C1Oc1ccc(C(=O)NCC(C)(CNC(C)(C)C(C)=NO)CNC(C)(C)C(C)=NO)cc1 (racemic) [Compound 49, Conjugate Between Chelate, 3,3,6,9,9-pentamethyl-6-aminomethyl-4,8-diazaundecane-2,10-dionedioxime and 4-[(4-carboxy)phenoxy]-1-[benzylaminocarbonyl]-3,3-diethyl-2-azetidinone] | 20000 | some degree of selectivity for granulocytes | 47.3 | 10.1 | 14.3 | 6.9 | 24.6 | 18.0 | 17.5 | 13.9 |
| CCC1(CC)C(=O)N(C(=O)NCCC(=O)NCCN(CCNC(C)(C)C(C)=NO)CCNC(C)(C)C(C)=NO)C1Oc1ccc(C(=O)N2CCN(C)CC2)cc1 (racemic) [Compound 51, Conjugate Between Chelate, 3,3,11,11-Tetramethyl-7-aminomethyl-4,7,10-triazatridecane-2,12-dionedioxime and 4-[4-[[(4-Methyl)piperazin-1-yl]carbonyl]phenoxy]-1-[(2-carboxy)ethylaminocarbonyl]-3,3-diethyl-2-azetidinone] | 2500 | some degree of selectivity for granulocytes | 3.9 | 0.4 | 0.8 | 1.7 | 28.7 | 11.2 | 1.9 | 13.4 |
| CCC1(CC)C(=O)N(C(=O)NCc2ccccc2)C1Oc1ccc(C(=O)NCCN(CCNC(C)(C)C(C)=NO)CCNC(C)(C)C(C)=NO)cc1 (racemic) [Compound 52, Conjugate Between Chelate, 3,3,11,11-tetramethyl-7-aminomethyl-4,7,10-triazatridecane-2,12-dionedioxime and 4-[(4-carboxy)phenoxy]-1-[benzylaminocarbonyl]-3,3-diethyl-2-azetidinone] | 7800 | some degree of selectivity for granulocytes | 1.9 | 0.8 | 37.4 | 9.1 | 10.9 | 7.1 | 1.8 | 8.2 |
